Laboratory results taken from patent publication US20230374067A1, “NOVEL PEPTOIDS AND USE THEREOF FOR PREVENTING OR TREATING CHRONIC PAIN” (Université Clermont Auvergne, priority 2020, published 2023).
Square brackets hold non-standard residues; d marks the D form. Peptide text beside a SMILES is read from it. * marks the point of attachment. Gly(N-CH2CH2OH) = O=C(O)CNCCO; Nleu = CC(C)CNCC(=O)O; Bz = O=C(c1ccccc1)*

How the values were obtained:
[1] = tested on: OIPN mice (oxaliplatin-induced neuropathy model mice); test: Oxaliplatin-induced acute neuropathy in mice, paw immersion test (cold hypersensitivity); assay type: in vivo
Method: (§1) Immersion test: The tail or paw was immersed in a water bath set at 10° C. or 46° C. until shrinkage was observed (cut-off time: 30 s). The average of two separate determinations of withdrawal latency was calculated (Janssen, Niemegeers & Dony, 1963).
Oxaliplatin-induced acute neuropathy in mice: Mice were injected intraperitoneally (i.p.) with 6 mg/kg oxaliplatin dissolved in 5% glucose directly after the first behavioral assessment. At 90 h after drug administration, corresponding to the time required to reach peak hyperalgesia (Descoeur et al., 2011), a second assessment of cold sensitivity and mechanical sensitivity was performed.

[2] = target: T1, interaction between HCN and the TRIP8b tail (Homo sapiens, UniProt Q8IYB4); test: Fluorescence polarization assay, disruption of TRIP8b-HCN interaction; assay type: binding; settings: compared with NUCC5953
T1 sequence (Q8IYB4 265-626 limits assumed): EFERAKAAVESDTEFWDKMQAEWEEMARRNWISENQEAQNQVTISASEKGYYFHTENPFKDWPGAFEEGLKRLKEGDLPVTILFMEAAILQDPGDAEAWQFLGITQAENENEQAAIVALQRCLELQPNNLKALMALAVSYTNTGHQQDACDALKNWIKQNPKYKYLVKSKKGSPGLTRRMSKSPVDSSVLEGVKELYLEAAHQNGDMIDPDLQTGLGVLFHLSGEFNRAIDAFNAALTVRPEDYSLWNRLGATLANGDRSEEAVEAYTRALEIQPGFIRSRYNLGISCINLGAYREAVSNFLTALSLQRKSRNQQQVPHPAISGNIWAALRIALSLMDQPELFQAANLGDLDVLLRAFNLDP
Description: Fluorescence polarization assay: a fluorescence polarization (FP) based assay was used to identify compounds capable of disrupting the interaction between HCN and the TRIP8b tail, as published (Han et al., 2015).

[3] = tested on: PTX rats; test: Paclitaxel-induced neuropathy in rats (mechanical thresholds, paw immersion); assay type: in vivo; settings: rat model of paclitaxel-induced neuropathy, i.t., 0.2, 1 or 5 μg
Method: as §1
Paw pressure test in rats: Rats were subjected to the paw pressure test previously described by Randall and Selitto (1957). Nociceptive thresholds, expressed in grams, were measured with a Ugo Basile analgesic meter (Apelex, probe tip diameter 1 mm, weight 30 g) by applying increasing pressure to the right hind paw of the rats until a pain sign (vocalization threshold) was obtained (cut-off was 750 g). Before the treatments, the rats were habituated to the test by handling them without subjecting them to paw pressure. Then, after obtaining two consecutive stable vocalization threshold values, the treatment effects were evaluated after 15, 30, 45, 60, 90, and 120 min. Results are expressed as vocalization thresholds, in grams. […] Data were analyzed by a 2-way ANOVA followed by a Bonferroni test, when the time course of the effects was studied. A one-way ANOVA followed by a Student Newman-Keuls test was used to analyze the effect of the different treatments determined by the CSAs. The level of statistical significance was set at p<0.05. […]

[4] = tested on: neuropathic rats; test: Spinal nerve ligation induced neuropathy in rats, paw immersion test; assay type: in vivo; settings: neuropathy induced by traumatic nerve injury, intrathecal, 5 μg
Method: as §1
Spinal nerve ligation induced neuropathy in rats: According to the procedure of Kim and Chung (1992), rats were placed in the […] position and anesthetized with 10 mg/kg xylazine and 75 mg/kg ketamine (i.p). The fur on the left side of the spine was then shaved to expose the skin. The skin was cut parallel to the spine and the paravertebral muscles were separated. The L5 transverse apophysis was removed until the L5 spinal nerve was exposed. The L5 nerve was isolated and ligated with silk thread. Finally, the muscle and skin incisions were sutured and the wound was disinfected with iodophor and 75% ethyl alcohol. In the sham group, the rats underwent the same surgical procedure without the nerve ligation.

[5] = tested on: mice; test: Rotarod test (locomotor activity); assay type: in vivo; settings: administered subcutaneously (2.5, 5, or 10 mg/kg, s.c.)
Method: Rotarod Test: For the Rotarod test (Bioseb), the animals were first habituated to remain on the stationary cylinder for 10 min before switching to another 10 min with a rotational speed of 4 rpm. The animals were given the drug immediately after training and the test was performed 30 min later. The test consisted of measuring the latency to fall of the animals as the rotation increased from 4 to 40 rpm linearly over 5 min. The average of the two closest values over 3 trials was calculated.

SMILES	analgesic effect ([1]; mouse, in vivo)	also measured
CC(C)C[C@H](NC(=O)CCN(CCO)C(=O)CN(CCO)C(=O)CN(CC(C)C)C(=O)c1ccc([N+](=O)[O-])cc1)C(=O)O [LF108]	demonstrated an analgesic effect	
Cc1ccc(C(=O)N(CC(=O)N(CCO)CC(=O)N(CCO)CCC(=O)N[C@@H](CC(C)C)C(=O)O)CC(C)C)cc1 [LF126]	demonstrated an analgesic effect	
CC(C)C[C@H](NC(=O)CCN(CC(N)=O)C(=O)CN(CCO)C(=O)CN(CC(C)C)C(=O)c1ccccc1)C(=O)O [LF176]	demonstrated an analgesic effect	
CC(C)C[C@H](NC(=O)CCN(CCO)C(=O)CN(CCO)C(=O)CN(CC(C)C)C(=O)c1ccc(C(F)(F)F)cc1)C(=O)O [LF188]	demonstrated an analgesic effect	
CCCCN(CC(=O)N(CCO)CC(=O)N(CCO)CCC(=O)N[C@@H](CC(C)C)C(=O)O)C(=O)c1ccccc1 [LF222]	demonstrated an analgesic effect	
CC(C)C[C@H](NC(=O)CCN(CCO)C(=O)CN(CCO)C(=O)CN(Cc1ccccc1)C(=O)C(C)C)C(=O)O [LF239]	demonstrated an analgesic effect	
CC(C)C[C@H](NC(=O)CCN(CCO)C(=O)CN(CCO)C(=O)CN(CC(C)C)C(=O)c1ccc(F)cc1)C(=O)O [LF261]	demonstrated an analgesic effect	
CC(C)C[C@H](NC(=O)CCN(CCO)C(=O)CN(CCO)C(=O)CN(C(=O)c1ccccc1)C(C)C)C(=O)O [LF295]	demonstrated an analgesic effect	
CC(C)C[C@H](NC(=O)CCN(CCO)C(=O)CN(CCO)C(=O)CN(CC(C)(C)C)C(=O)c1ccccc1)C(=O)O [LF306]	demonstrated an analgesic effect	
CC(C)C[C@H](NC(=O)CCN(CCO)C(=O)CN(CCN)C(=O)CN(CC(C)C)C(=O)c1ccccc1)C(=O)O [LF329]	demonstrated an analgesic effect	
CC(=O)N(CCO)CC(=O)N(CCO)CCC(=O)N[C@@H](CC(C)C)C(=O)O [LF369]		analgesic effect ([1]; OIPN mice, 5 μg, i.t.): demonstrated an analgesic effect
Cc1cccc(C(=O)N(CC(=O)N(CCO)CC(=O)N(CCO)CCC(=O)N[C@@H](CC(C)C)C(=O)O)CC(C)C)c1 [LF400]	demonstrated an analgesic effect	
CC(C)C[C@H](NC(=O)CCN(CCO)C(=O)CN(CCO)C(=O)CN(Cc1ccccc1)C(=O)c1ccccc1)C(=O)O [MP208]	demonstrated an analgesic effect	
CC(C)C[C@H](NC(=O)CCN(CCO)C(=O)CN(CCO)C(=O)CN(CC(C)C)C(=O)Cc1ccccc1)C(=O)O [MP341]		analgesic effect ([1]; OIPN mice, 10 mg/kg, s.c.): demonstrated an analgesic effect
CC(C)C[C@H](NC(=O)CCN(CCCO)C(=O)CN(CCO)C(=O)CN(CC(C)C)C(=O)c1ccccc1)C(=O)O [MP354]		analgesic effect ([1]; OIPN mice, 10 mg/kg, s.c.): demonstrated an analgesic effect
CC(C)C[C@H](NC(=O)CCN(CCO)C(=O)CN(CCCO)C(=O)CN(CC(C)C)C(=O)c1ccccc1)C(=O)O [MP376]		analgesic effect ([1]; OIPN mice, 10 mg/kg, s.c.): demonstrated an analgesic effect
CC(C)C[C@H](NC(=O)CN(CCO)C(=O)CN(CCO)C(=O)CN(CC(C)C)C(=O)c1ccccc1)C(=O)O [MP405] (Bz-[Nleu][Gly(N-CH2CH2OH)][Gly(N-CH2CH2OH)]L-OH)	demonstrated an analgesic effect	
CC(C)C[C@H](NC(=O)CCN(CCO)C(=O)CN(CCO)C(=O)CN(CC(C)C)C(=O)c1ccccc1)C(=O)O [YC55]		potency in disrupting the TRIP8b-HCN interaction [2]: equal potency to NUCC5953; dose-dependent analgesic effect [3]: dose-dependent analgesic effect; dose-dependent analgesic effect / reversal of oxaliplatin-induced acute cold hypersensitivity ([1]; OIPN mice, i.t., 0.2, 1, 5 μg/mouse): dose-dependent analgesic effect; dose-dependent analgesic effect ([1]; OIPN mice, s.c., 2.5, 5 or 10 mg/kg): dose-dependent analgesic effect; antihyperalgesic effect [4]: antihyperalgesic effect; alteration in locomotor activity [5]: No alteration in locomotor activity
